Data published in ChEMBL document CHEMBL1201862, “PubChem BioAssay data set” (2004).
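These data come from cells grown in 96-well plates and exposed to compound for 48 hours at five concentrations. GI50 marks 50% less growth.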 Activity calls are given as the source filed them. Rule as the data show it: active = GI50 up to about 1.1 µM and inactive = higher.

Legend:
Assay in all cases: NCI tumour cell line growth inhibition, 48 h
A549 = tested on: A549
BT-549 = tested on: BT-549
CAKI-1 = tested on: CAKI-1
CCRF-CEM = tested on: CCRF-CEM
COLO 205 = tested on: COLO 205
IGROV-1 = tested on: IGROV-1
K562 = tested on: K562
KM12 = tested on: KM12
M14 = tested on: M14
MDA-N = tested on: MDA-N
NCI-H226 = tested on: NCI-H226
NCI-H460 = tested on: NCI-H460
OVCAR-3 = tested on: OVCAR-3
RXF 393 = tested on: RXF 393
SK-MEL-2 = tested on: SK-MEL-2
SK-MEL-5 = tested on: SK-MEL-5
SK-OV-3 = tested on: SK-OV-3
SNB-75 = tested on: SNB-75
TK-10 = tested on: TK-10
UACC-257 = tested on: UACC-257

Measured: GI50

Cn1c(=O)c2nc(CCS)[nH]c2n(C)c1=O
inactive: A549 > 100 µM | BT-549 > 100 µM | CAKI-1 > 100 µM | CCRF-CEM 55 µM | COLO 205 > 100 µM | IGROV-1 > 100 µM | K562 > 100 µM | KM12 > 100 µM | M14 > 100 µM | MDA-N > 100 µM | NCI-H226 > 100 µM | NCI-H460 > 100 µM | OVCAR-3 > 100 µM | RXF 393 90.6 µM | SK-MEL-2 > 100 µM | SK-MEL-5 > 100 µM | SK-OV-3 68.1 µM | SNB-75 18.3 µM | TK-10 50.2 µM | UACC-257 > 100 µM

CN1C(=O)C(O)CC1c1ccc(C(F)(F)F)cc1 (stereo not given)
inactive: A549 > 100 µM | BT-549 > 100 µM | CAKI-1 > 100 µM | CCRF-CEM > 100 µM | COLO 205 > 100 µM | IGROV-1 > 100 µM | K562 > 100 µM | KM12 > 100 µM | M14 > 100 µM | MDA-N > 100 µM | NCI-H226 > 100 µM | NCI-H460 > 100 µM | OVCAR-3 > 100 µM | RXF 393 > 100 µM | SK-MEL-2 > 100 µM | SK-MEL-5 > 100 µM | SK-OV-3 > 100 µM | SNB-75 > 100 µM | TK-10 > 100 µM | UACC-257 44.1 µM

CC(C)(C)[Si](C)(C)OCC1OC(n2ccc(=O)[nH]c2=O)C(O[Si](C)(C)C(C)(C)C)/C1=N/O (stereo not given)
inactive: A549 3.14 µM | BT-549 7.6 µM | CAKI-1 7.71 µM | CCRF-CEM 3.29 µM | COLO 205 2.42 µM | IGROV-1 4.18 µM | K562 2.77 µM | KM12 3.54 µM | M14 3.33 µM | MDA-N 4.08 µM | NCI-H226 2.82 µM | NCI-H460 3.44 µM | OVCAR-3 8.67 µM | RXF 393 8.39 µM | SK-MEL-2 3.21 µM | SK-MEL-5 2.45 µM | SK-OV-3 6.41 µM | SNB-75 18.5 µM | TK-10 6.68 µM | UACC-257 4.17 µM

O=c1[nH]c2cc(Cl)ccc2nc1/C(=N/Nc1ccccc1)C(O)c1ccco1 (stereo not given)
inactive: A549 > 100 µM | BT-549 > 100 µM | CAKI-1 > 100 µM | CCRF-CEM > 100 µM | COLO 205 > 100 µM | IGROV-1 > 100 µM | K562 > 100 µM | KM12 > 100 µM | M14 > 100 µM | MDA-N > 100 µM | NCI-H226 > 100 µM | NCI-H460 > 100 µM | OVCAR-3 > 100 µM | RXF 393 > 100 µM | SK-MEL-2 > 100 µM | SK-MEL-5 > 100 µM | SK-OV-3 > 100 µM | SNB-75 > 100 µM | TK-10 > 100 µM | UACC-257 > 100 µM

CCOC(=O)C(NC(=O)CC(C)C)(Nc1ccc(S(=O)(=O)Nc2nc(C)cc(C)n2)cc1)C(F)(F)F (stereo not given)
inactive: A549 > 100 µM | BT-549 > 100 µM | CAKI-1 > 100 µM | CCRF-CEM > 100 µM | COLO 205 > 100 µM | IGROV-1 > 100 µM | K562 > 100 µM | KM12 > 100 µM | M14 > 100 µM | MDA-N > 100 µM | NCI-H226 > 100 µM | NCI-H460 > 100 µM | OVCAR-3 > 100 µM | RXF 393 > 100 µM | SK-MEL-2 > 100 µM | SK-MEL-5 > 100 µM | SK-OV-3 > 100 µM | SNB-75 89.9 µM | TK-10 > 100 µM | UACC-257 > 100 µM

C=CC1C(OC2OC(CO)C(O)C(O)C2O)OC=C(C(=O)OC)C1CC1CC(=O)CC(CCc2ccc(O)cc2)O1 (stereo not given)
inactive: A549 > 100 µM | BT-549 > 100 µM | CAKI-1 > 100 µM | CCRF-CEM > 100 µM | COLO 205 > 100 µM | IGROV-1 > 100 µM | K562 > 100 µM | KM12 > 100 µM | M14 > 100 µM | MDA-N > 100 µM | NCI-H226 > 100 µM | NCI-H460 > 100 µM | OVCAR-3 > 100 µM | RXF 393 > 100 µM | SK-MEL-2 > 100 µM | SK-MEL-5 > 100 µM | SK-OV-3 > 100 µM | SNB-75 > 100 µM | TK-10 > 100 µM | UACC-257 > 100 µM

C/C(Cc1ccc2c(c1)OCO2)=N\NC(=O)C(C)Sc1nnc(SC(C)C(=O)N/N=C(\C)Cc2ccc3c(c2)OCO3)s1 (stereo not given)
inactive: A549 > 100 µM | BT-549 > 100 µM | CAKI-1 > 100 µM | CCRF-CEM 66.2 µM | COLO 205 > 100 µM | IGROV-1 > 100 µM | K562 32.1 µM | KM12 > 100 µM | M14 > 100 µM | MDA-N > 100 µM | NCI-H226 > 100 µM | NCI-H460 > 100 µM | OVCAR-3 > 100 µM | RXF 393 > 100 µM | SK-MEL-2 > 100 µM | SK-MEL-5 69.3 µM | SK-OV-3 > 100 µM | SNB-75 83.9 µM | TK-10 > 100 µM | UACC-257 > 100 µM
